Assay results from PubChem BioAssay (NCI).
Several values for one entry are separate records, joined by “and”; a condition that tells them apart may be missing. Equal values may be shown once.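 Results reflect a 48-hour exposure of cells in 96-well plates to compound at five concentrations. GI50 is the concentration that inhibits growth by half. TGI marks complete inhibition of growth.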

System: SF-539 CNS
Experiment: inhibition of tumour cell growth, NCI panel, 48 h

Q: Which GI50 does the source give for `CN1CCN(C(=O)OCc2nc3c(N4CCOCC4)nc(Cl)nc3n2C)CC1` here?
A: The GI50 was 1.39 µM.

Q: And the TGI?
A: Its TGI is 2.73 µM.

Q: With `COC(=O)[C@]12CC[C@@H](C)[C@H](C)[C@@H]1C1=CC[C@@H]3[C@@]4(C)C/C(=N\O)[C@H](O)[C@@]5(C)COC(=C45)C[C@@]3(C)[C@]1(C)CC2` as the compound, how does the GI50 read?
A: Its GI50 is 9.05 µM.

Q: And the TGI?
A: The TGI was 22.4 µM.

Q: With `Cn1c2ccccc2c2c(-c3ccccc3)[n+]3ccncc3nc21` as the compound, how does the GI50 read?
A: Its GI50 is 48.3 µM.

Q: And the TGI?
A: Its TGI is over 100 µM.

Q: For `C[C@@H]1OC(O)[C@@H](F)[C@H](O)[C@@H]1O` (stereo partly drawn), which GI50 is on record?
A: The GI50 was over 100 µM.

Q: And the TGI?
A: The TGI was over 100 µM.

Q: What does the source list for `NC(=O)c1ccc(I)c(N)c1`?
A: GI50: > 100 µM; TGI: > 100 µM

Q: `O=C(/C(Br)=C/c1ccccc1)c1ccccc1` was tested. Which GI50 did it give?
A: Its GI50 is 2.12 µM.

Q: What about the TGI of the same compound?
A: The TGI was 4.72 µM.

Q: `C=C1C(=O)O[C@H]2[C@H]1CC/C(Cn1cc(-c3ccc(OC)cc3)nn1)=C\CC[C@@]1(C)O[C@@H]21` was tested. Which GI50 did it give?
A: Its GI50 is 0.346 µM.

Q: What about the TGI of the same compound?
A: Its TGI is 1.49 µM.

Q: What does the source list for `O=C1CCCCN1CCCCC#Cc1ccccc1C#Cc1ccc([N+](=O)[O-])cc1`?
A: GI50: 3.13 µM; TGI: 12.7 µM

Q: For `CCOc1cc2c(Cl)ncnc2c(OCC)c1OCC`, which GI50 is on record?
A: Its GI50 is 14 µM.

Q: And the TGI?
A: The TGI was 27.8 µM.

Q: Which results are given for `Oc1ccc2ccccc2c1N=Nc1nccs1`?
A: GI50: 2.33 µM; TGI: 13.2 µM

Q: Which TGI does the source give for `CC(=O)OCCN1c2ccccc2Sc2cnccc21` here?
A: The TGI was over 10 µM.

Q: With `Cn1c(=O)c2[nH]c(SCc3ccccn3)nc2n(C)c1=S` as the compound, how does the TGI read?
A: Its TGI is over 100 µM.

Q: What does the source list for `COc1cc2c(c(O)c1Br)C(=O)c1c(O)cc(C[C@H](C)O)cc1[C@H]2[C@H]1c2cc(C[C@H](C)O)cc(O)c2C(=O)c2c1cc(OC)c(Br)c2O`?
A: GI50: 2.66 µM and 3.67 µM; TGI: 14.8 µM and 13.6 µM

Q: How did the TGI turn out when `COc1ccc(-c2cc(=O)c3ccc(O)cc3o2)cc1OC` was run?
A: Its TGI is over 100 µM.

Q: What does the source list for `FC(F)(F)c1cccc(Nc2nccc(-c3cnn4nc(-c5ccccc5)ccc34)n2)c1`?
A: GI50: 6.59 µM; TGI: > 18.7 µM

Q: `CCC(C)c1c(Cl)nc(Cl)nc1Cl` (stereo not drawn) was tested. Which TGI did it give?
A: Its TGI is 58.8 µM.

Q: `CS(=O)(=O)c1ccc([C@H]2O[C@@H](CO)C[C@]2(O)c2ccc(S(C)(=O)=O)cc2)cc1` was tested. Which GI50 did it give?
A: Its GI50 is over 100 µM.

Q: And the TGI?
A: Its TGI is over 100 µM.

Q: With `COc1ccc(-c2cc(=O)c3c(OC)c(OC)c(OC)cc3o2)cc1` as the compound, how does the TGI read?
A: The TGI was over 100 µM.

System: CCRF-CEM leukemia
Experiment: inhibition of tumour cell growth, NCI panel, 48 h

Q: `CN1CCN(C(=O)OCc2nc3c(N4CCOCC4)nc(Cl)nc3n2C)CC1` was tested. Which GI50 did it give?
A: Its GI50 is 0.313 µM.

Q: What about the TGI of the same compound?
A: The TGI was 1.78 µM.

Q: `COC(=O)[C@]12CC[C@@H](C)[C@H](C)[C@@H]1C1=CC[C@@H]3[C@@]4(C)C/C(=N\O)[C@H](O)[C@@]5(C)COC(=C45)C[C@@]3(C)[C@]1(C)CC2` was tested. Which GI50 did it give?
A: Its GI50 is 2.79 µM.

Q: And the TGI?
A: The TGI was 8.83 µM.

Q: What does the source list for `Oc1c(CN2CCC(N3CCCCC3)CC2)cc(Cc2cc(CN3CCC(N4CCCCC4)CC3)c(O)c3ncccc23)c2cccnc12`?
A: GI50: 0.403 µM; TGI: 3.51 µM

Q: Which results are given for `Cn1c2ccccc2c2c(-c3ccccc3)[n+]3ccncc3nc21`?
A: GI50: 89.4 µM; TGI: > 100 µM

Q: Which GI50 does the source give for `C[C@@H]1OC(O)[C@@H](F)[C@H](O)[C@@H]1O` (stereo partly drawn) here?
A: The GI50 was over 100 µM.

Q: And the TGI?
A: Its TGI is over 100 µM.

Q: For `NC(=O)c1ccc(I)c(N)c1`, which GI50 is on record?
A: The GI50 was over 100 µM.

Q: What about the TGI of the same compound?
A: Its TGI is over 100 µM.

Q: How did the GI50 turn out when `O=C(/C(Br)=C/c1ccccc1)c1ccccc1` was run?
A: Its GI50 is 0.39 µM.

Q: And the TGI?
A: The TGI was 2.01 µM.

Q: Which GI50 does the source give for `C=C1C(=O)O[C@H]2[C@H]1CC/C(Cn1cc(-c3ccc(OC)cc3)nn1)=C\CC[C@@]1(C)O[C@@H]21` here?
A: The GI50 was 0.29 µM.

Q: And the TGI?
A: The TGI was 0.823 µM.

Q: How did the GI50 turn out when `O=C1CCCCN1CCCCC#Cc1ccccc1C#Cc1ccc([N+](=O)[O-])cc1` was run?
A: Its GI50 is 2.87 µM.

Q: And the TGI?
A: Its TGI is 18.2 µM.

Q: For `CCOc1cc2c(Cl)ncnc2c(OCC)c1OCC`, which GI50 is on record?
A: Its GI50 is 2.6 µM.

Q: What about the TGI of the same compound?
A: The TGI was 6.85 µM.

Q: How did the GI50 turn out when `Oc1ccc2ccccc2c1N=Nc1nccs1` was run?
A: The GI50 was 0.0932 µM.

Q: How did the TGI turn out when `CC(=O)OCCN1c2ccccc2Sc2cnccc21` was run?
A: The TGI was over 10 µM.

Q: For `Cn1c(=O)c2[nH]c(SCc3ccccn3)nc2n(C)c1=S`, which TGI is on record?
A: Its TGI is over 100 µM.

Q: Which GI50 does the source give for `COc1cc2c(c(O)c1Br)C(=O)c1c(O)cc(C[C@H](C)O)cc1[C@H]2[C@H]1c2cc(C[C@H](C)O)cc(O)c2C(=O)c2c1cc(OC)c(Br)c2O` here?
A: The GI50 was 3.86 µM and 14.3 µM.

Q: And the TGI?
A: The TGI was 67.5 µM and 92.9 µM.

Q: How did the TGI turn out when `COc1ccc(-c2cc(=O)c3ccc(O)cc3o2)cc1OC` was run?
A: The TGI was over 100 µM.

Q: Which GI50 does the source give for `FC(F)(F)c1cccc(Nc2nccc(-c3cnn4nc(-c5ccccc5)ccc34)n2)c1` here?
A: The GI50 was over 17.9 µM.

Q: What about the TGI of the same compound?
A: Its TGI is over 25 µM.

Q: With `CCC(C)c1c(Cl)nc(Cl)nc1Cl` (stereo not drawn) as the compound, how does the TGI read?
A: Its TGI is over 100 µM.

Q: Which results are given for `Oc1ccc(CN2CCC(N3CCCCC3)CC2)c2cccnc12`?
A: GI50: 36.1 µM; TGI: > 100 µM

Q: How did the GI50 turn out when `CS(=O)(=O)c1ccc([C@H]2O[C@@H](CO)C[C@]2(O)c2ccc(S(C)(=O)=O)cc2)cc1` was run?
A: Its GI50 is over 100 µM.

Q: And the TGI?
A: The TGI was over 100 µM.

Q: Which TGI does the source give for `COc1ccc(-c2cc(=O)c3c(OC)c(OC)c(OC)cc3o2)cc1` here?
A: Its TGI is 74 µM.

System: COLO 205 colon
Experiment: inhibition of tumour cell growth, NCI panel, 48 h

Q: What does the source list for `CN1CCN(C(=O)OCc2nc3c(N4CCOCC4)nc(Cl)nc3n2C)CC1`?
A: GI50: 1.44 µM; TGI: 4.1 µM

Q: `COC(=O)[C@]12CC[C@@H](C)[C@H](C)[C@@H]1C1=CC[C@@H]3[C@@]4(C)C/C(=N\O)[C@H](O)[C@@]5(C)COC(=C45)C[C@@]3(C)[C@]1(C)CC2` was tested. Which GI50 did it give?
A: The GI50 was 7.75 µM.

Q: And the TGI?
A: The TGI was 21.8 µM.

Q: What does the source list for `Oc1c(CN2CCC(N3CCCCC3)CC2)cc(Cc2cc(CN3CCC(N4CCCCC4)CC3)c(O)c3ncccc23)c2cccnc12`?
A: GI50: 0.372 µM; TGI: 1.94 µM

Q: What does the source list for `Cn1c2ccccc2c2c(-c3ccccc3)[n+]3ccncc3nc21`?
A: GI50: 29.5 µM; TGI: > 100 µM

Q: How did the GI50 turn out when `C[C@@H]1OC(O)[C@@H](F)[C@H](O)[C@@H]1O` (stereo partly drawn) was run?
A: The GI50 was over 100 µM.

Q: And the TGI?
A: The TGI was over 100 µM.

Q: Which results are given for `NC(=O)c1ccc(I)c(N)c1`?
A: GI50: > 100 µM; TGI: > 100 µM

Q: How did the GI50 turn out when `O=C(/C(Br)=C/c1ccccc1)c1ccccc1` was run?
A: Its GI50 is 1.09 µM.

Q: What about the TGI of the same compound?
A: Its TGI is 2.41 µM.

Q: With `C=C1C(=O)O[C@H]2[C@H]1CC/C(Cn1cc(-c3ccc(OC)cc3)nn1)=C\CC[C@@]1(C)O[C@@H]21` as the compound, how does the GI50 read?
A: The GI50 was 0.504 µM.

Q: What about the TGI of the same compound?
A: Its TGI is 1.95 µM.

Q: For `O=C1CCCCN1CCCCC#Cc1ccccc1C#Cc1ccc([N+](=O)[O-])cc1`, which GI50 is on record?
A: Its GI50 is 2.75 µM.

Q: What about the TGI of the same compound?
A: Its TGI is 7.17 µM.
